# Results taken from patent publication EP1293213A1, “PREVENTIVES/REMEDIES FOR POSTOPERATIVE STRESS” (Japan Tobacco Inc., priority 2000, dated 2001).
# Like-named read-outs stand apart in the source and are kept apart here.
# Key:
# [1] = biological target: T1, CRF type I(CRF-I) receptor (Homo sapiens, UniProt P34998); assay: in vitro Binding Assay using membrane fraction of recombinant cell (6EF2B) expressing CRF receptor gene (SPA method); conditions: 125I-Tyr0-human/rat CRF, membrane fraction of 6EF2B cells (derived from Hela cell)
# T1 construct: expressed in transfected cells; membrane fraction
# T1 sequence (P34998 24-415): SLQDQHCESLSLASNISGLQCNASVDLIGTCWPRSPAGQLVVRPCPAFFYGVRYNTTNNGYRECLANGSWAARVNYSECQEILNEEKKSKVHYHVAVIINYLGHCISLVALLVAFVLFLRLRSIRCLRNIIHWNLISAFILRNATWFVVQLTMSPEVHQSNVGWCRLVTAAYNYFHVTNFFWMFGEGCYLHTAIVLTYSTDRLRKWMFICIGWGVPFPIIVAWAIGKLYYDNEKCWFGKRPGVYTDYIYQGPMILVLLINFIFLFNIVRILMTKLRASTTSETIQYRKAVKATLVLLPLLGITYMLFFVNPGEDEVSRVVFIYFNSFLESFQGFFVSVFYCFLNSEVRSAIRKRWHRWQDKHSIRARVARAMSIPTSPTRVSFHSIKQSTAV
# Protocol: Experiment 1 : in vitro Binding Assay using membrane fraction of recombinant cell (6EF2B) with expression of CRF receptor gene
# Preparation of membrane fraction:
# Recombinant cells 6EF2B (derived from Hela cell), which express CRF type I(CRF-I) receptor gene stably, were cultivated in Eagle's MEM medium(10%FCS, 400ug/ml G418.1/100 penicillin/streptomycin). After cultivation, cells were suspended in 50mM Tris-HCl (pH7.2) solution containing 1mM EDTA and incubated at 25°C for 15 to 30 minutes. After that, every step was carried out at 4°C. Treated cells were suspended in 50mM Tris-HCl(pH7.2) containing 10% sucrose and homogenized by a Polytron(PT10-35 model). This step of homogenization was carried out at 25,000 rpm for 15 to 20 seconds and repeated twice or three times. In the course of this step the homogenates were inspected under a microscope. Homogenates were centrifuged at 600 x g for 5 minutes and the supernatant was centrifuged again at 40,000 x g for 30 minutes. The obtained pellet was resuspended in 50mM Tris-HCl(10mM MgCl2, 2mM EGTA) and the suspension was centrifuged again at 40,000 x g for 30minutes. The obtained pellet was used for further experiments as membrane fraction. The membrane fraction was diluted with 50mM Tris-HCl(10mM MgCl2, 2mM EGTA, 0.1%BSA, 100 kallikrein units/ml aprotinin, 0.1mM bacitracin, pH7.2) to have the concentration of 1mg/ml and then stored at -80°C. DC protein assay kit (produced by Bio-RAD) was used to determine the protein concentration of the membrane fraction.
# Binding Assay using CRF-I receptor by means of SPA method:
# Compounds to be evaluated were stored at the concentration of 10mM in DMSO. […] The assay buffer consisted of 50mM Tris-HCl (pH7.7) containing 100mM NaCl, 5mM KCl, 2mM CaCl2, 0.1% BSA, 0.1% bacitracin, 0.05% FCS and 5% horse serum. The reactions were carried out in 96-well Optiplate(Packard) in which to 50ul of the test substance solution, were added 50ul of WGA-beads & membrane fraction (50 to 100ug membrane fraction/10mg beads/ml) pre-coupled by stirring (rotating with 10rpm) at room temperature for 2 hours on the day of experiment, and 100ul of 0.4nM ^125I-Tyr^0-human/rat CRF(NEX-216, Dupont NEN), to be made up 200ul as total volume, and the mixture was incubated at 25°C for 3 hours. By the way, the step of pre-coupling was carried out by using beads solution (20mg/ml) suspended in 50mM Tris-HCl buffer solution (pH7.2) and after stirring beads were washed twice with Tris-HCl buffer and once with assay buffer by centrifugation (3000 rpm, 5 minutes). In order to measure total binding and non-specific binding activity, assay buffer solution and 1uM(final conc.) cold human /rat CRF(C-3042; SIGMA) solution were used respectively in place of test substance solution. After incubation, the mixture was centrifuged at 23 °C, 2,500 rpm for 5 minutes and the scintillation was counted with Top Count (Packard). An influence of color quench was corrected by standard curve made by using tartrazine as a quencher. Evaluation of samples was carried out several times.
# [2] = system: adrenocorticotropic hormone(ACTH); assay: Experiment 2: Model of surgical stress in mouse (inhibitory action of rise in releasing of ACTH); type: in vivo; conditions: ddY male mice, intravenous, surgical stress (abdominal incision, bowel draped externally)
# Protocol: Experiment 2: Model of surgical stress in mouse (Inhibitory action of rise in releasing of adrenocorticotropic hormone(ACTH))
# ddY male mice(SLC, 7 to 8 weeks of age: weight 34 to 42g)were used for experiments. Mice were housed before use under controlled lighting condition (12hours light and 12hours dark cycle(lights on from 8:00 to 20:00) at 23±3 °C and 55±15% humidity, and maintained with basal diet and water ad labium. On the experimental day, mice were moved to experimental room and habituated before experiment for more than 1 hour. On the day before experiment, mice were previously handled (by being fastened up for 10 to 15 seconds like the case of i.p. injections) to habituate to the stress caused by handling.
# Medicine and administration:
# Test compound to be evaluated was dissolved in and diluted with physiological saline(Otsuka), 5% mannitol or 0.1N NaHCO3/saline. Then the test sample solution was given into veins of mice at a dose of 10ml/Kg body weight. The same solvent alone mentioned above was given into veins of control mice group at a dose of 10ml/Kg weight.
# Mice were anesthetized by injection of pentobarbital Na (2.5mg/mouse i.p.) and after 15 minutes the solvent alone or the solution containing test sample to be evaluated were intravenously injected on the tails of mice at a dose of 10ml/ Kg weight of mouse. After more 10 minutes a midline incision was made in the abdomen and in two minutes bowel was draped externally. Then 2.5 minutes after incision 0.6ml of blood samples were collected from main vein abdominalis for 1 minute gradually by using prechilled syringes(needle size 25G), which were wetted with 100mM EDTA solution. Control mice not subjected to surgical stress were decapitated and blood samples were collected at 13 to 14 minutes after medication of solvent alone and to them added 20ul of 100mM EDTA. Blood samples collected were put into siliconized tubes and centrifuged at 10,000rpm and 4°C for 5 minutes. The concentration of ACTH in supernatant was determined by IRMA method using Allegro ACTH kit (Nihon Medi+Physics Co.,Ltd.). […]
# corticosterone = assay: Test 2: Effects on a rise in releasing of corticosterone caused by surgical stress; type: in vivo, mouse; conditions: mice
# Protocol: Test 2 Effects on a rise in releasing of stress hormone caused by surgical stress - effects on a rise in releasing of corticosterone, adrenocortical hormone.
# Mice (ddY Slc male, 7weeks of age) handled by being fastened up before the day of experiment were divided equally into groups according to their weights on the experimental day (the number of mouse in one group was 6 to 7). Mice were anesthetized by i.p. injections of 2.5mg/mouse pentobarbital Na(Nembutal(brand name)), Dainihonseiyaku) and, 20 minutes later, the solvent(0.1N HCl/saline) or test medicine CP154,526HCl(0.3, 1, 3 or 10 mg/kg) were intravenously injected into the tail veins of mice at a dose of 10ml/Kg weight of mouse. 5 Minutes after injection, a midline incision was made in the abdomen, and in about one to two minutes movable bowel was draped externally, and then, abdominal part was covered with wet absorbent cotton with saline to prevent from drying. In 30 minutes after incision, while the bowel was draped externally, mice were decapitated and blood samples were collected into siliconized tubes, prechilled on ice, which contained 20ul of 100mM EDTA. Blood samples were centrifuged at 7,000 x g and 4°C for 20 minutes and the supernatant was obtained. Negative control mice not subjected to surgical stress were decapitated and blood samples were collected in 35 minutes after injection of the solvent alone. […]
# [3] = system: adrenocorticotropic hormone (ACTH); assay: Test 1: Effects on a rise in releasing of ACTH caused by surgical stress; type: in vivo, mouse; conditions: mice
# Protocol: Test 1 Effects on a rise in releasing of stress hormone caused by surgical stress - effects on a rise in releasing of adrenocorticotropic hormone (ACTH)
# Mice (ddY Slc male, 7 weeks of age) handled by being fastened up before the day of experiment were divided equally into groups according to their weights on the experimental day (the number of mouse in one group was 10). Mice were anesthetized by i.p. injection of 2.5mg/mouse pentobarbital Na (Nembutal(brand name), Dainihonseiyaku) and, 5 minutes later, the solvent(0.1N HCl/saline)alone or test medicine CP154,526HCl(0.3, 1 or 3 mg/kg)were intravenously injected into the tail veins of mice at a dose of 10ml/Kg weight of mouse. 10 minutes after injection, a midline incision was made in the abdomen and in about two minutes movable bowel was draped externally. Then 25 minutes after incision, 0.6ml of blood sample was collected from aorta abdominalis for 1 minute gradually by using prechilled syringes (needle size 25G) which were wetted with 100mM EDTA solution. Control mice not subjected to surgical stress were given medication by the injection of the solvent alone 5 minutes after anesthesia. […] Blood samples were centrifuged at 7,000 x g and 4°C for 20 minutes and the concentration of ACTH in supernatant was determined by IRMA method using Allegro ACTH kit (Nihon Medi+Physics Co., Ltd.). […]
# [4] = read-out: IC50(nM) [experiment 1]
compound,measurement,setting,value
"CCN(CC)S(=O)(=O)c1cc(NC(=O)c2cc(Cl)c(O)c(Cl)c2)c(OC)c(OC)c1 [Example 10, 3,5-dichloro-N-(5-diethylsulfamoyl-2,3-dimethoxyphenyl)-4-hydroxybenzamide]",IC50,[1]; [4],165 nM
"CCN(CC)S(=O)(=O)c1cc(NC(=O)c2cc(Cl)c(O)c(Cl)c2)c(OC)c(N(C)C)c1 [Example 12, 3,5-dichloro-N-(5-diethylsulfamoyl-3-(dimethylamino)-2-methoxyphenyl)-4-hydroxybenzamide.]",IC50,[1]; [4],57 nM
"CCN(CC)S(=O)(=O)c1cc(NC(=O)c2cc(Cl)c(O)c([N+](=O)[O-])c2)c(OC)c(OC)c1 [Example 11, 3-chloro-N-(5-diethylsulfamoyl-2,3-dimethoxyphenyl)-4-hydroxy-5-nitrobenzamide]",IC50,[1]; [4],123 nM
"CCc1cc(S(=O)(=O)N(CC)CC)cc(NC(=O)c2cc(Cl)c(O)c(Cl)c2)c1OC [Example 6, 3,5-dichloro-N-(3-ethyl-5-diethylsulfamoyl-2-methoxyphenyl)-4-hydroxybenzamide]",IC50,[1]; [4],218 nM
"CCc1cc(S(=O)(=O)N(CC)CC)cc(NC(=O)c2cc(Cl)c(OP(=O)(O)O)c(Cl)c2)c1OC.O=P(O)(O)O [Example 9, phosphate 2,6-dichloro-4-(N-(3-ethyl-5-diethylsulfamoyl-2-methoxyphenyl)carbamoyl)phenylphosphate]",IC50,[1]; IC50(nM) [experiment 1],278 nM
same,Inhibitory action on ACTH release (mg/kg) [experiment 2],[2],10 to 30 mg/kg
"CCCCN(CC)c1nc(C)nc2c1c(C)cn2-c1c(C)cc(C)cc1C.Cl [CP-154,526 HCl, N-butyl-N-[2,5-dimethyl-7-(2,4,6-trimethylphenyl)-7H -pyrrolo[2,3-d]pyrimidine-4-yl]-N-ethylamine chloride]",increase of corticosterone concentration in plasma,"corticosterone; i.v. 0.3, 1, 3 or 10 mg/kg, surgical stress, viscera exposed 30 minutes, dose-dependently (Fig. 2)",inhibited
same,dose showing statistically significant inhibitory action on increase of corticosterone concentration in plasma,"corticosterone; i.v., surgical stress (Fig. 2)",not less than 10 mg/Kg
same,increase of ACTH concentration in plasma,"[3]; i.v. 0.3, 1 or 3 mg/kg, surgical stress, dose-dependently (Fig. 1)",inhibited
same,dose showing statistically significant inhibitory action on increase of ACTH concentration in plasma,"[3]; i.v., surgical stress (Fig. 1)",not less than 1 mg/Kg
"CCc1cc(S(=O)(=O)N(CC)CC)cc(NC(=O)c2cc(Cl)c([O-])c(Cl)c2)c1OC.[Na+] [Example 8, sodium 2,6-dichloro-4-(N-(3-ethyl-5-diethylsulfamoyl-2-methoxyphenyl)carbamoyl)phenoxide]",IC50,[1]; [4],195 nM
same,Inhibitory action on ACTH release (mg/kg) [experiment 2],[2],10 to 30 mg/kg
